Source: patent US20230077362A1 (CORTEVA AGRISCIENCE LLC, priority 2019, published 2023)
Where two headings read alike, the source gives them in different places.

Experiments:
[1] = tested on: Beet Armyworm (Spodoptera exigua) ("BAW"), second instar larvae; assay: Bioassay on beet armyworm (BAW), 128-well diet tray assay; assay type: in vivo; conditions: for pest or weed control at 50 µg/cm2: Spodoptera exigua; for BAW rating: C = not tested, D = no activity noticed
Method in brief: (§1)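 Mortality (%) is scored well by well after five to seven days at 25° C. on a 14:10 light:dark regime. The value given is the mean of eight wells.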

[2] = tested on: Cabbage Looper (Trichoplusia ni) ("CL"), second instar larvae; assay: Bioassay on cabbage looper (CL), 128-well diet tray assay; assay type: in vivo; conditions: for CL rating: C = not tested, D = no activity noticed
Method in brief: as §1

[3] = read-out: BAW (Biological Results, rating)
[4] = Trichoplusia ni, read-out: CL (Biological Results, rating)
[5] = Trichoplusia ni, read-out: CL rating

## CC(C)c1ccc(N(C)C)cc1N1C(=O)CS/C1=N\C(=O)Nc1ccc(-c2ncn(-c3ccc(C(F)(F)F)cn3)n2)cc1C(F)(F)F [Compound J302, (Z)-1-(3-(5-(Dimethylamino)-2-isopropylphenyl)-4-oxothiazolidin-2-ylidene)-3-(2-(trifluoromethyl)-4-(1-(5-(trifluoromethyl)pyridin-2-yl)-1H-1,2,4-triazol-3-yl)phenyl)urea]
[1]; [3]
  pest or weed control at 50 µg/cm2: 50 to 100%
[2]; [4]
  pest or weed control at 50 µg/cm2: 50 to 100%

## Cc1ccc(C(C)C)c(N2C(=O)CS/C2=N\C(=O)Nc2ccc(-c3ncn(-c4ccc(OC(F)(F)F)cc4)n3)cc2C#N)c1 [Compound J227, (Z)-1-(2-cyano-4-(1-(4-(trifluoromethoxy)phenyl)-1H-1,2,4-triazol-3-yl)phenyl)-3-(3-(2-isopropyl-5-methylphenyl)-4-oxothiazolidin-2-ylidene)urea]
[1]; [3]
  pest or weed control at 50 µg/cm2: 50 to 100%
[2]; [4]
  pest or weed control at 50 µg/cm2: 50 to 100%

## COc1ccc(C(C)C)c(N2C(=O)CS/C2=N\C(=O)Nc2ccc(-c3ncn(-c4ccc(C(F)(F)F)cc4)n3)c(C)c2)c1 [Compound J5, (Z)-1-(3-(2-Isopropyl-5-methoxyphenyl)-4-oxothiazolidin-2-ylidene)-3-(3-methyl-4-(1-(4-(trifluoromethyl)phenyl)-1H-1,2,4-triazol-3-yl)phenyl)urea]
[1]; [3]
  pest or weed control at 50 µg/cm2: 50 to 100%
[2]; [4]
  pest or weed control at 50 µg/cm2: 50 to 100%

## CN(C)c1ccc(C(F)(F)F)c(N2C(=O)CS/C2=N\C(=O)Nc2ccc(-c3nnc(-c4ccc(OC(F)(F)F)cc4)o3)cc2F)c1 [Compound J611, (Z)-1-(3-(5-(Dimethylamino)-2-(trifluoromethyl)phenyl)-4-oxothiazolidin-2-ylidene)-3-(2-fluoro-4-(5-(4-(trifluoromethoxy)phenyl)-1,3,4-oxadiazol-2-yl)phenyl)urea]
[1]; read-out: BAW rating
  pest or weed control at 50 µg/cm2: 50 to 100%
[2]; [5]
  pest or weed control at 50 µg/cm2: 50 to 100%

## COC(C)c1ccc(C)cc1N1C(=O)CS/C1=N\C(=O)Nc1ccc(-c2ccn(-c3ccc(C(F)(F)F)cn3)n2)cc1F (stereo not drawn) [Compound J309, (Z)-1-(2-Fluoro-4-(1-(5-(trifluoromethyl)pyridin-2-yl)-1H-pyrazol-3-yl)phenyl)-3-(3-(2-(1-methoxyethyl)-5-methylphenyl)-4-oxothiazolidin-2-ylidene)urea]
[1]; [3]
  pest or weed control at 50 µg/cm2: 50 to 100%
[2]; [4]
  pest or weed control at 50 µg/cm2: 50 to 100%

## Cc1cccc(N2C(=O)CS/C2=N\C(=O)Nc2ccc(-c3ncn(-c4ccc(C(F)(F)F)cc4)n3)cc2F)c1COCC(F)(F)F [Compound J677]
[1]; Table ABC, species BAW
  BAW rating: A (50-100)
[2]; Table ABC, species CL
  CL rating: A (50-100)

## Cc1ccc(-n2cnc(-c3ccc(NC(=O)/N=C4\SCC(=O)N4c4cc(C)ccc4COCC(F)(F)F)c(F)c3)n2)cc1 [Compound J752]
[1]; Table ABC, species BAW
  BAW rating: A (50-100)
[2]; Table ABC, species CL
  CL rating: A (50-100)

## CCCc1ccc(C)cc1N1C(=O)CS/C1=N\C(=O)Nc1ccc(-c2ncn(-c3ccc(OC(F)(F)F)cc3)n2)cc1C#N [Compound J248, (Z)-1-(2-Cyano-4-(1-(4-(trifluoromethoxy)phenyl)-1H-1,2,4-triazol-3-yl)phenyl)-3-(3-(5-methyl-2-propylphenyl)-4-oxothiazolidin-2-ylidene)urea]
[1]; [3]
  pest or weed control at 50 µg/cm2: 50 to 100%
[2]; [4]
  pest or weed control at 50 µg/cm2: 50 to 100%

## Cc1ccc(Cc2cccnc2)c(N2C(=O)CS/C2=N\C(=O)Nc2ccc(-c3ncn(-c4ccc(C(F)(F)F)cc4)n3)cc2F)c1 [Compound J758, (Z)-1-(2-Fluoro-4-(1-(4-(trifluoromethyl)phenyl)-1H-1,2,4-triazol-3-yl)phenyl)-3-(3-(5-methyl-2-(pyridin-3-ylmethyl)phenyl)-4-oxothiazolidin-2-ylidene)urea]
[1]; read-out: BAW rating
  pest or weed control at 50 µg/cm2: 50 to 100%
[2]; [5]
  pest or weed control at 50 µg/cm2: 50 to 100%

## Cc1ccc(COCC(F)F)c(N2C(=O)CS/C2=N\C(=O)Nc2ccc(-c3ncn(-c4ccc(OC(F)(F)F)cc4)n3)cc2C)c1 [Compound J420]
[1]; Table ABC, species BAW
  BAW rating: A (50-100)
[2]; Table ABC, species CL
  CL rating: A (50-100)

## CCC(C)c1ccc(OC)cc1N1C(=O)CS/C1=N\C(=O)Nc1ccc(-c2ncn(-c3ccc(OC(F)(F)F)cc3)n2)cc1F (stereo not drawn) [Compound J48, (Z)-1-(3-(2-(sec-Butyl)-5-methoxyphenyl)-4-oxothiazolidin-2-ylidene)-3-(2-fluoro-4-(1-(4-(trifluoromethoxy)phenyl)-1H-1,2,4-triazol-3-yl)phenyl)urea]
[1]; [3]
  pest or weed control at 50 µg/cm2: 50 to 100%
[2]; [4]
  pest or weed control at 50 µg/cm2: 50 to 100%

## COCc1ccc(C)cc1N1C(=O)CS/C1=N\C(=O)Nc1ccc(-n2cnc(-c3ccc(OC(F)(F)F)cc3)n2)cc1Cl [Compound J730, (Z)-1-(2-Chloro-4-(3-(4-(trifluoromethoxy)phenyl)-1H-1,2,4-triazol-1-yl)phenyl)-3-(3-(2-(methoxymethyl)-5-methylphenyl)-4-oxothiazolidin-2-ylidene)urea]
[1]; read-out: BAW rating
  pest or weed control at 50 µg/cm2: 50 to 100%
[2]; [5]
  pest or weed control at 50 µg/cm2: 50 to 100%

## CCOCc1ccc(C)cc1N1C(=O)CS/C1=N\C(=O)Nc1ccc(-c2ncn(-c3ccc(OC(F)(F)F)cc3)n2)cc1Br [Compound J221, (Z)-1-(2-Bromo-4-(1-(4-(trifluoromethoxy)phenyl)-1H-1,2,4-triazol-3-yl)phenyl)-3-(3-(2-(ethoxymethyl)-5-methylphenyl)-4-oxothiazolidin-2-ylidene)urea]
[1]; [3]
  pest or weed control at 50 µg/cm2: 50 to 100%
[2]; [4]
  pest or weed control at 50 µg/cm2: 50 to 100%

## (Z)-1-(3-(5-ethoxy-2-((2,2,2-trifluoroethoxy)methyl)phenyl)-4-oxothiazolidin-2-ylidene)-3-(2-methyl-4-(1-(4-(trifluoromethoxy)phenyl))-1H-1,2,4-triazol-3-yl)phenyl)urea [Compound J575]
[1]; Table ABC, species BAW
  BAW rating: A (50-100)
[2]; Table ABC, species CL
  CL rating: A (50-100)

## Cc1ccc(COCC(F)(F)F)c(N2C(=O)CS/C2=N\C(=O)Nc2ccc(-c3n[nH]c(-c4ccccc4)n3)cc2)c1 [Compound J802, (Z)-1-(3-(5-Methyl-2-((2,2,2-trifluoroethoxy)methyl)phenyl)-4-oxothiazolidin-2-ylidene)-3-(4-(5-phenyl-1H-1,2,4-triazol-3-yl)phenyl)urea]
[1]; Table ABC, species BAW, 128-well diet tray assay, second instar larvae
  BAW rating (% control or mortality class): A (50-100)
[2]; Trichoplusia ni, Table ABC, species CL, 128-well diet tray assay, second instar larvae, read-out: CL rating (% control or mortality class)
  mortality at 50 µg/cm2: 50 to 100%

## Cc1cc(COCC(F)(F)F)c(N2C(=O)CS/C2=N\C(=O)Nc2ccc(-n3cnc(-c4ccc(OC(F)(F)F)cc4)n3)cc2Cl)cc1C [Compound J733, (Z)-1-(2-Chloro-4-(3-(4-(trifluoromethoxy)phenyl)-1H-1,2,4-triazol-1-yl)phenyl)-3-(3-(4,5-dimethyl-2-((2,2,2-trifluoroethoxy)methyl)phenyl)-4-oxothiazolidin-2-ylidene)urea]
[1]; read-out: BAW rating
  pest or weed control at 50 µg/cm2: 50 to 100%
[2]; [5]
  pest or weed control at 50 µg/cm2: 50 to 100%

## Cc1ccc(COCC(F)(F)F)c(N2C(=O)CS/C2=N\C(=O)Nc2ccc(-c3ncn(-c4ccc(OC(F)(F)F)cc4)n3)cc2C(F)F)c1 [Compound J215, (Z)-1-(2-(Difluoromethyl)-4-(1-(4-(trifluoromethoxy)phenyl)-1H-1,2,4-triazol-3-yl)phenyl)-3-(3-(5-methyl-2-((2,2,2-trifluoroethoxy)methyl)phenyl)-4-oxothiazolidin-2-ylidene)urea]
[1]; [3]
  pest or weed control at 50 µg/cm2: 50 to 100%
[2]; [4]
  pest or weed control at 50 µg/cm2: 50 to 100%

## CCc1ccc(COCC(F)(F)F)c(N2C(=O)CS/C2=N\C(=O)Nc2ccc(-c3ncn(-c4ccc(C(F)(F)F)cc4)n3)cc2F)c1 [Compound J642]
[1]; Table ABC, species BAW
  BAW rating: A (50-100)
[2]; Table ABC, species CL
  CL rating: A (50-100)

## COc1ccc(C(C)C)c(N2C(=O)CS/C2=N\C(=O)Nc2ccc(-c3ncn(-c4ccc(OC(F)(F)C(F)(F)F)cc4)n3)cc2C)c1 [Compound J25, (Z)-1-(3-(2-Isopropyl-5-methoxyphenyl)-4-oxothiazolidin-2-ylidene)-3-(2-methyl-4-(1-(4-(perfluoroethoxy)phenyl)-1H-1,2,4-triazol-3-yl)phenyl)urea]
[1]; [3]
  pest or weed control at 50 µg/cm2: 50 to 100%
[2]; [4]
  pest or weed control at 50 µg/cm2: 50 to 100%

## Cc1ccc(COCC(F)(F)F)c(N2C(=O)CS/C2=N\C(=O)Nc2ccc(-c3cn(-c4ccc(C(F)(F)F)cn4)cn3)cc2F)c1 [Compound J487, (Z)-1-(2-Fluoro-4-(1-(5-(trifluoromethyl)pyridin-2-yl)-1H-imidazol-4-yl)phenyl)-3-(3-(5-methyl-2-((2,2,2-trifluoroethoxy)methyl)phenyl)-4-oxothiazolidin-2-ylidene)urea]
[1]; read-out: BAW rating
  pest or weed control at 50 µg/cm2: 50 to 100%
[2]; [5]
  pest or weed control at 50 µg/cm2: 50 to 100%

## COC(c1ccc(C)cc1N1C(=O)CS/C1=N\C(=O)Nc1ccc(-n2cnc(-c3ccc(C(F)(F)F)cc3)n2)cc1F)C(F)(F)F (stereo not drawn) [Compound J696, (Z)-1-(2-Fluoro-4-(3-(4-(trifluoromethyl)phenyl)-1H-1,2,4-triazol-1-yl)phenyl)-3-(3-(5-methyl-2-(2,2,2-trifluoro-1-methoxyethyl)phenyl)-4-oxothiazolidin-2-ylidene)urea]
[1]; read-out: BAW rating
  pest or weed control at 50 µg/cm2: 50 to 100%
[2]; [5]
  pest or weed control at 50 µg/cm2: 50 to 100%

## CCCOCc1ccc(C)cc1N1C(=O)CS/C1=N\C(=O)Nc1ccc(-c2ncn(-c3ccc(S(F)(F)(F)(F)F)cc3)n2)cc1F [Compound J544]
[1]; Table ABC, species BAW
  BAW rating: A (50-100)
[2]; Table ABC, species CL
  CL rating: A (50-100)

## CCC(OC)c1ccc(C)cc1N1C(=O)CS/C1=N\C(=O)Nc1ccc(-c2ncn(-c3ccc(OC(F)(F)F)cc3)n2)cc1F (stereo not drawn) [Compound J421]
[1]; read-out: BAW rating
  pest or weed control at 50 µg/cm2: 50 to 100%
[2]; [5]
  pest or weed control at 50 µg/cm2: 50 to 100%

## Cc1ccc(OCC(F)(F)F)c(N2C(=O)CS/C2=N\C(=O)Nc2ccc(-c3ncn(-c4ccc(OC(F)(F)F)cc4)n3)cc2C)c1 [Compound J55, (Z)-1-(3-(5-Methyl-2-(2,2,2-trifluoroethoxy)phenyl)-4-oxothiazolidin-2-ylidene)-3-(2-methyl-4-(1-(4-(trifluoromethoxy)phenyl)-1H-1,2,4-triazol-3-yl)phenyl)urea]
[1]; [3]
  pest or weed control at 50 µg/cm2: 50 to 100%
[2]; [4]
  pest or weed control at 50 µg/cm2: 50 to 100%
